Series [1] concerns 3H-5-HT uptake into whole rat brain synaptosomes. Kind of series: Inhibition of 3H-5-HT uptake into rat brain synaptosomes. The format is biochemical. To be noted: 3H-5-HT accumulation into whole rat brain synaptosomes, in vitro; read-out: Inhibition of serotonin reuptake IC50. The procedure: Inhibition of ^3H-5-HT Uptake Into Rat Brain Synaptosomes
Using this method the ability of drugs to inhibit the accumulation of ^3H-5-HT into whole rat brain synaptosomes is determined in vitro.

The target of a further series is T1, human 5-HT1A receptors (Homo sapiens, UniProt P08908).
T1 construct: expressed in transfected cells; host or cells: HeLa cells (HA7), used as cell homogenate
T1 sequence (P08908 1-422): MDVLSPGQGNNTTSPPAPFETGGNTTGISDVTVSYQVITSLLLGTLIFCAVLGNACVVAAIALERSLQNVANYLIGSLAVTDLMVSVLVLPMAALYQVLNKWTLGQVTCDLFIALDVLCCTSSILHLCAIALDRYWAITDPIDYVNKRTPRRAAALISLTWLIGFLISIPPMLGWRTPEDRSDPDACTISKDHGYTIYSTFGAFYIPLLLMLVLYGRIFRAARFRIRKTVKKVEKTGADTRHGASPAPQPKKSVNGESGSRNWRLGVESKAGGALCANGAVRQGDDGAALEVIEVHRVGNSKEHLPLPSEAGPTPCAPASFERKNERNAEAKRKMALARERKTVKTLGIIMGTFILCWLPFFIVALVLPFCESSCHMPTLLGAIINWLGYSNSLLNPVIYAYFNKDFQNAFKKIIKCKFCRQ
Kind of series: Inhibition of 3H-5-CT binding to human 5-HT1A receptors. The procedure:
Inhibition of ^3H-5-CT Binding to Human 5-HT1A Receptors
Human 5-HT1A receptors (40 μg of cell homogenate) were incubated for 15 minutes at 37° C. in 50 mM Tris buffer at pH 7.7 in the presence of ^3H-5-CT. Non-specific binding was determined by including 10 μM of metergoline. The reaction was terminated by rapid filtration through Unifilter GF/B filters on a Tomtec Cell Harvester. Filters were counted in a Packard Top Counter.

The target of another series is T2, cloned 5-HT1A receptors (Homo sapiens, UniProt P08908).
T2 construct: expressed in transfected cells; host or cells: HeLa cells (HA7)
T2 sequence (P08908 1-422): T1 sequence (P08908 1-422)
In words: Antagonism of 5-HT induced inhibition of forskolin induced cAMP accumulation. As to conditions: cloned 5-HT1A receptors in transfected HeLa cells (HA7). The format is cell-based. The procedure:
The assay was performed as a modification of the method described by Pauwels, P. J et al, Biochem. Pharmacol. 1993, 45, 375.

[2] abbreviates: cloned human 5-HT1A receptors expressed in transfected HeLa cells (HA7), cell homogenate, 15 minutes at 37° C., pH 7.7.

Like-named read-outs stand apart in the source and are kept apart here.

In general, IC50 refers to the concentration that gives 50% inhibition. In general, melting point refers to the temperature, or range, at which the solid turns liquid.

For the compound `Clc1ccc2c(c1)NCC2CCN1CCN(c2cccc3c2OCCO3)CC1.O=C(O)C(=O)O` (centres unmarked) [Compound 4d, 3-[2-[4-(1,4-Benzodioxan-5-yl)piperazin-1-yl]ethyl]-6-chloro-2,3-dihydro-1H-indole oxalate], the melting point is 185 to 188 °C. Also, the IC50 in series [1] is 4.3 nM. Further, the IC50 on human 5-HT1A receptors (setting [2]) was found to be 14 nM. Moreover, the IC50 at cloned 5-HT1A receptors amounted to 890 nM.

Take `Brc1ccc2[nH]cc(CCN3CCN(c4cccc5c4OCCO5)CC3)c2c1.O=C(O)C(=O)O` [Compound 1b, 3-[2-[4-(1,4-Benzodioxan-5-yl)piperazin-1-yl]ethyl]-5-bromo-1H-indole oxalate]: the melting point was 236 to 240 °C. Further, the 50% inhibitory concentration (IC50) in series [1] worked out at 2.8 nM. Also, the IC50 on human 5-HT1A receptors came out at 7.2 nM. The same compound showed an IC50 against cloned 5-HT1A receptors of 5000 nM.

`Fc1ccc2[nH]cc(CCN3CCN(c4cccc5c4OCCO5)CC3)c2c1.O=C(O)C(=O)O` [Compound 1h, 3-[2-[4-(1,4-Benzodioxan-5-yl)piperazin-1-yl]ethyl]-5-fluoro-1H-indole oxalate] came in with a melting point of 224 to 226 °C. In addition, the IC50 in series [1] was 1.7 nM. Moreover, at human 5-HT1A receptors, the IC50 is 4.6 nM. The IC50 at cloned 5-HT1A receptors was 280 nM.

Compound `CC(=O)N1CC(CCN2CCN(c3cccc4c3OCCO4)CC2)c2ccccc21` (centres unmarked) [Compound 2b] came in with a melting point of 119 to 120 °C. Further, the IC50 in series [1] amounted to 12 nM. The compound further yielded an IC50 on human 5-HT1A receptors (setting [2]) of 13 nM. The compound further registered a concentration for half-maximal inhibition (IC50) on cloned 5-HT1A receptors of 250 nM.

In turn, `Clc1cccc2[nH]cc(CCN3CCN(c4cccc5c4OCCO5)CC3)c12.O=C(O)C(=O)O` [Compound 1e, 3-[2-[4-(1,4-Benzodioxan-5-yl)piperazin-1-yl]ethyl]-4-chloro-1H-indole oxalate] came in with a melting point of 210 to 218 °C. The IC50 in series [1] is 0.25 nM. For the same compound, the IC50 at human 5-HT1A receptors amounted to 11 nM. The IC50 against cloned 5-HT1A receptors came to 2400 nM.

The values are drawn from US6727263B2, “Indole and 2,3-dihydroindole derivatives, their preparation and use” (H. Lundbeck A/S, priority 1997, dated 2004).
